Test results from patent US7220822B2, “CD28 mimetics for blocking T cell mediated immune reactions” (The Ohio State University, priority 2000, dated 2007).
Entries after “also recorded” stand apart in the source; their conditions may differ. Read-outs that look alike come from different tables or passages of the source. Square brackets hold non-standard residues; d marks the D form. Peptide text beside a SMILES is read from it.

Legend:
CD4+Vβ8.2+ spleen cells = assay: Apoptosis (TUNEL, flow cytometry) of antigen-stimulated CD4+Vβ8.2+ spleen cells in vitro; type: cell-based, mouse; conditions: 150 μM peptide, data not shown
Experimental: (§1) To investigate whether the observed decrease in proliferative responses following treatment with CD28 peptides is a result of cell loss, cell death was measured by enzymatic in-situ labeling. Apoptotic cells among MBP NAc1-11 stimulated TCR Vβ 8.2+ CD4+ T cells were detected by staining with FITC labeled Tdt (terminal deoxynucleotidyl transferase). Cells incubated in DNAse served as positive control.
CD4+ T cells from pooled lymph nodes and spleen from B10.PL TCR Vβ 8.2 Vα 4 transgenic mice were cultured in RPMI 1640 in a 96 well round-bottom plate, essentially under the conditions specified for proliferation assays. Cells were harvested at the end of 48 hours and apoptotic cells among TCR Vβ 8.2+ CD4+ T cells were detected by the TUNEL method. Briefly, after washing twice with PBS containing 1-% rat serum, the cells were stained with PE labeled anti-mouseVβ 8.1,8.2 TCR (clone MR5-2) (Pharmingen, San Diego, Calif.) for 30 min at room temperature and washed. […] After washing, the DNA strand breaks in the cells were detected by incubating the cells with fluorescein labeled TUNEL mix (terminal deoxynucleotidyl transferase (Tdt)) for 60 min at 37° C. using an in situ cell death detection kit (Boehringer Mannheim, Mannheim, Germany) according to the manufacturer's recommendations. […] Cells were then washed with PBS and analyzed by flow cytometry.

[1] = system: CD4+ LNC from TCR Vβ 8.2 Vα 4 transgenic mice; assay: Apoptosis (TUNEL, flow cytometry) of antigen-stimulated Vβ8.2+ CD4+ lymph node cells in vitro; type: cell-based, mouse
Experimental: as §1
CD4+ T cells from pooled lymph nodes and spleen from B10.PL TCR Vβ 8.2 Vα 4 transgenic mice were cultured in RPMI 1640 in a 96 well round-bottom plate, essentially under the conditions specified for proliferation assays. Cells were harvested at the end of 48 hours and apoptotic cells among TCR Vβ 8.2+ CD4+ T cells were detected by the TUNEL method. Briefly, after washing twice with PBS containing 1-% rat serum, the cells were stained with PE labeled anti-mouseVβ 8.1,8.2 TCR (clone MR5-2) (Pharmingen, San Diego, Calif.) for 30 min at room temperature and washed. Subsequently, the cells were fixed with 4% paraformaldehyde in PBS for 30 min at room temperature. Then the cells were washed and permeabilized with 0.1% Triton X-100 in 0.1% sodium citrate for 2 min at 4° C. After washing, the DNA strand breaks in the cells were detected by incubating the cells with fluorescein labeled TUNEL mix (terminal deoxynucleotidyl transferase (Tdt)) for 60 min at 37° C. using an in situ cell death detection kit (Boehringer Mannheim, Mannheim, Germany) according to the manufacturer's recommendations. As a positive control, cells were incubated in DNAse (1 mg/ml) for 10 minutes at room temperature prior to incubation with TdT. The negative control consisted of cells incubated without TdT. Cells were then washed with PBS and analyzed by flow cytometry.

[2] = system: CD4+ LNC from Vα4/Vβ8.2 TCR transgenic mice; type: cell-based, mouse; conditions: CD4+ LNC and spleen cells, NAc 1-11 10 μg/ml, all concentrations used
Experimental: The in vitro effect of varying concentration of the CD 28 peptide mimetics on CD4+ lymph node cells and spleen cells from transgenic mice bearing the Vα 4 Vβ8.2 TCR specific for MBP Ac 1-11 was determined.
CD4+ T cells were purified from pooled peripheral lymph nodes (inguinal, axillary, brachial, cervical, popliteal), and mesenteric lymph nodes and spleen of 6–8 wk old Vα4/Vβ8.2 TCR transgenic mice by positive selection. Single cell suspensions were prepared by lympholyte M gradient, washed, counted and incubated with magnetic bead conjugated anti-mouse CD4 (L3T4) (Miltenyi Biotech Corporation) followed by positive selection using magnetic selection columns. Purity of the CD4^+ cells was greater than 90% as assessed by staining with FITC labeled anti-mouseVβ8.2 mAb (Pharmingen). During the selection process, T cells maintain a naïve phenotype with no evidence for T cell activation as measured by proliferation in culture. Purified CD4+ T-cells (5×10^4 cells/well) were cultured together with wild type splenocytes from B10.PL mice as APC's (10^5 cells/well) in RPMI 1640 containing 10% FCS, 25 mM HEPES, 2 mM L-glutamine, 50 U/ml penicillin, 50 μg/ml streptomycin, and 5×10–5 M 2-ME in round-bottom 96-well plates and MBP (40 μg/ml) or MBP NAc1-11 (10 μg/ml) or media only in the presence or absence of synthetic CD28 peptide analogues at different concentrations in triplicate wells for 72 h, including a final 18-h pulse with [^3H] thymidine. Cultures were harvested onto glass-fiber mats using a Skatron harvester (Skatron, Sterling, Va.) and were counted by liquid scintillation on LKB Betaplate (LKB, Rockville, Md.). The means of the triplicate were determined and the results are expressed as delta cpm (mean counts per minute of cultures with Ag-mean counts per minute of cultures with medium alone)±SD.

CD80-Ig = target: T1, CD80-Ig (Homo sapiens, UniProt P33681); assay: Competitive kinetic analysis (SPR): CD28 peptides versus CD28-Ig for binding indirectly immobilized CD80-Ig; conditions: for kd: competition with CD28-Ig 3.2 μM
T1 construct: extracellular domain of CD80 fused with the constant region of mouse IgG1 heavy chain
Experimental: Competitive kinetic analysis was performed as described previously using purified anti-mouse IgG1 Fc (31437zz) (Pierce City, Ill., USA) to indirectly immobilize CD80-Ig (39). […] The binding kinetics of CD28-Ig was assessed by injecting a range of CD28-Ig concentration (187 nM to 12 μM) over immobilized CD80-Ig (324 RU) for 5 min at 10 μl/min. CD80-Ig was regenerated using a 3 min injection of 5 mM NaOH. For competitive kinetic analysis, 100 μl of a 3.2 μM CD28-Ig solution was mixed with 100 μl of EL CD28 or RI CD28 peptides (6.18 μM to 503 μM in HBS-EP) and injected over the surface of CD80-Ig as secondary analyte for 5 min with a flow rate of 10 μl/min. The CD80-Ig surface was regenerated between injections by washing for 3 min with 5 mM NaOH. The mixtures were also injected on an empty flow cell with no protein immobilized, as a control.
In competitive kinetic experiments, the observed response R is the sum of the contributions of R1 and R2 from the two analytes. The binding data was analyzed using the equation R(t)=R1 (CD28-Ig)+R2 (CD28-P) (3) where • R1=Rmaxka1C1/kf−ks{k1(kf−ks)/kf*ks+k1−kf/kf*e^−kf^(t−t0)−k1ks/ks*e^−ks(t−t0)} • R2=RmaxMW1ka2C2/MW2*kf−ks[{k2(kf−ks)}/kf*ks}+(k2−kf/kf)*e^−kf^(t−t0)−(k2−ks/ks)*e^−ks(t−t0) • kf=0.5{ktq+k2+π(ka1−k2)^2+4kf1kCD28PC1C2} • ks=0.5{kt1+k2−π(kt1−k2)^2+4k1k2C1C2} • kt CD28-Ig=ka1C+kd1 • kt2=ka2C2+kd2
When competitive data were analyzed, ka, kd and Rmax values obtained for the interaction between CD80-Ig and CD28-Ig were used as non floating parameters and the rate constants for CD28 peptides were calculated from the injection phase data using the expanded equation 3.
FIGS. 4a and 4b are representative sensograms obtained from the competitive experiments using the CD28-Ig and ELCD28 and RICD28 APR respectively. The top curve is the interaction of CD28-Ig (3.2 μM) alone with the CD80-Ig. The response level gradually goes down as the concentration of the specified CD28 peptide increases. […] However, the dissociation constant varied with varying concentration of EL CD28 peptide mimetic(Table 3).

[3] = 150 μM peptide, 48 hr, versus untreated
[4] = read-out: ka, competition with CD28-Ig 3.2 μM, peptide C 0.125 × 10^5 nM
[5] = read-out: ka, competition with CD28-Ig 3.2 μM, peptide C 0.25 × 10^5 nM
[6] = read-out: ka, competition with CD28-Ig 3.2 μM, peptide C 0.5 × 10^5 nM
[7] = read-out: ka, competition with CD28-Ig 3.2 μM, peptide C 1 × 10^5 nM
[8] = read-out: ka, competition with CD28-Ig 3.2 μM, peptide C 2 × 10^5 nM
[9] = read-out: ka, competition with CD28-Ig 3.2 μM, peptide C 3 × 10^5 nM

T1 sequence (P33681 35-242 limits assumed, other chains not shown): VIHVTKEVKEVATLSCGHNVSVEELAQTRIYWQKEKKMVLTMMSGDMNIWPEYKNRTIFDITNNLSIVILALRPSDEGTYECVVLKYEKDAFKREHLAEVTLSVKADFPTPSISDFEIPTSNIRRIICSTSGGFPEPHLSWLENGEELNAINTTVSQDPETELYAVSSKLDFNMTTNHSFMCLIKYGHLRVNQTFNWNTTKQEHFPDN

CC[C@H](C)[C@H](NC(=O)[C@@H](NC(=O)CNC(=O)[C@H](CC(N)=O)NC(=O)[C@H](CO)NC(=O)[C@H](CCCNC(=N)N)NC(=O)[C@H](CCC(=O)O)NC(=O)[C@H](CC(N)=O)NC(=O)[C@H](CC(=O)O)NC(=O)[C@H](CC(C)C)NC(=O)[C@H](Cc1ccc(O)cc1)NC(=O)[C@@H]1CCCN1C(=O)[C@@H]1CCCN1C(=O)[C@@H]1CCCN1C(=O)[C@H](Cc1ccc(O)cc1)NC(=O)[C@H](CCSC)NC(=O)[C@H](Cc1ccccc1)NC(=O)[C@H](CCC(=O)O)NC(=O)[C@@H](NC(=O)[C@H](CCCCN)NC(C)=O)[C@@H](C)CC)[C@@H](C)O)C(N)=O [EL CD28] (Ac-KIEFMYPPPYLDNERSNGTI-NH2)
apoptosis (in words) (CD4+Vβ8.2+ spleen cells): increase in apoptosis | percentage of apoptotic cells (in words) [1, 3]: Significant increase | percentage of apoptotic cells (in words) ([1]; 150 μM peptide, 48 hr, versus untreated, listed as ELCD28): significantly higher percentage | proliferative response / inhibition of T cell proliferation (in words) [2]: significantly less | kd (CD80-Ig; peptide C 0.125 × 10^5 nM): 0.101 s⁻¹ | kd (CD80-Ig; peptide C 0.25 × 10^5 nM): 0.0195 s⁻¹ | kd (CD80-Ig; peptide C 0.5 × 10^5 nM): 0.316 s⁻¹ | kd (CD80-Ig; peptide C 1 × 10^5 nM): 0.0803 s⁻¹ | kd (CD80-Ig; peptide C 2 × 10^5 nM): 0.0862 s⁻¹ | kd (CD80-Ig; peptide C 3 × 10^5 nM): 6.89 s⁻¹ | kon (CD80-Ig; [4]): 73400 M⁻¹ s⁻¹ | kon (CD80-Ig; [5]): 3360 M⁻¹ s⁻¹ | kon (CD80-Ig; [6]): 63200 M⁻¹ s⁻¹ | kon (CD80-Ig; [7]): 31600 M⁻¹ s⁻¹ | kon (CD80-Ig; [8]): 55100 M⁻¹ s⁻¹ | kon (CD80-Ig; [9]): 2.36e+06 M⁻¹ s⁻¹

CC[C@@H](C)[C@@H](NC(C)=O)C(=O)N[C@@H](C(=O)NCC(=O)N[C@H](CC(N)=O)C(=O)N[C@H](CO)C(=O)N[C@H](CCCNC(=N)N)C(=O)N[C@H](CCC(=O)O)C(=O)N[C@H](CC(N)=O)C(=O)N[C@H](CC(=O)O)C(=O)N[C@H](CC(C)C)C(=O)N[C@H](Cc1ccc(O)cc1)C(=O)N1CCC[C@@H]1C(=O)N1CCC[C@@H]1C(=O)N1CCC[C@@H]1C(=O)N[C@H](Cc1ccc(O)cc1)C(=O)N[C@H](CCSC)C(=O)N[C@H](Cc1ccccc1)C(=O)N[C@H](CCC(=O)O)C(=O)N[C@@H](C(=O)N[C@H](CCCCN)C(N)=O)[C@H](C)CC)[C@H](C)O [RI CD28] (Ac-[dI][dT]G[dN][dS][dR][dE][dN][dD][dL][dY][dP][dP][dP][dY][dM][dF][dE][dI][dK]-NH2)
apoptosis (in words) (CD4+Vβ8.2+ spleen cells): increase in apoptosis | percentage of apoptotic cells (in words) ([1]; 75 μM peptide, 48 hrs): Significant increase | percentage of apoptotic cells (in words) [1, 3]: significantly higher percentage; also recorded: Significant increase | proliferative response / inhibition of T cell proliferation (in words) [2]: significantly less | kd (CD80-Ig; peptide C 0.125 × 10^5 nM): 0.177 s⁻¹ | kd (CD80-Ig; peptide C 0.25 × 10^5 nM): 0.0738 s⁻¹ | kd (CD80-Ig; peptide C 0.5 × 10^5 nM): 0.275 s⁻¹ | kd (CD80-Ig; peptide C 1 × 10^5 nM): 0.142 s⁻¹ | kd (CD80-Ig; peptide C 2 × 10^5 nM): 0.0245 s⁻¹ | kd (CD80-Ig; peptide C 3 × 10^5 nM): 0.0206 s⁻¹ | kon (CD80-Ig; [4]): 105000 M⁻¹ s⁻¹ | kon (CD80-Ig; [5]): 54400 M⁻¹ s⁻¹ | kon (CD80-Ig; [6]): 92400 M⁻¹ s⁻¹ | kon (CD80-Ig; [7]): 94700 M⁻¹ s⁻¹ | kon (CD80-Ig; [8]): 23500 M⁻¹ s⁻¹ | kon (CD80-Ig; [9]): 10700 M⁻¹ s⁻¹
